Experimental data: ChEMBL document CHEMBL2434953, “Safe and easy route for the synthesis of 1,3-dimethyl-1,2,3-triazolium salt and investigation of its anticancer activities” (2013)

Tests used:
Format in all cases: functional
U-251 = assay: Growth inhibition of human U251 cells after 48 hrs by sulforhodamine B assay; conditions: U-251, 48 h
SNB-19 = assay: Growth inhibition of human SNB19 cells after 48 hrs by sulforhodamine B assay; conditions: SNB-19, 48 h
SNB-75 = assay: Growth inhibition of human SNB75 cells after 48 hrs by sulforhodamine B assay; conditions: SNB-75, 48 h
SF-539 = assay: Growth inhibition of human SF539 cells after 48 hrs by sulforhodamine B assay; conditions: SF-539, 48 h
SF-295 = assay: Growth inhibition of human SF295 cells after 48 hrs by sulforhodamine B assay; conditions: SF-295, 48 h
SF-268 = assay: Growth inhibition of human SF268 cells after 48 hrs by sulforhodamine B assay; conditions: SF-268, 48 h
NCI-H522 = assay: Growth inhibition of human NCI-H522 cells after 48 hrs by sulforhodamine B assay; conditions: NCI-H522, 48 h
NCI-H460 = assay: Growth inhibition of human NCI-H460 cells after 48 hrs by sulforhodamine B assay; conditions: NCI-H460, 48 h
NCI-H322M = assay: Growth inhibition of human NCI-H322M cells after 48 hrs by sulforhodamine B assay
NCI-H23 = assay: Growth inhibition of human NCI-H23 cells after 48 hrs by sulforhodamine B assay; conditions: NCI-H23, 48 h
NCI-H226 = assay: Growth inhibition of human NCI-H226 cells after 48 hrs by sulforhodamine B assay; conditions: NCI-H226, 48 h
HOP-62 = assay: Growth inhibition of human HOP62 cells after 48 hrs by sulforhodamine B assay; conditions: HOP-62, 48 h
[1] = Growth inhibition of human EKVX cells after 48 hrs by sulforhodamine B assay
A549 = assay: Growth inhibition of human A549 cells after 48 hrs by sulforhodamine B assay; conditions: A549, 48 h
SW-620 = assay: Growth inhibition of human SW620 cells after 48 hrs by sulforhodamine B assay; conditions: SW-620, 48 h
KM12 = assay: Growth inhibition of human KM12 cells after 48 hrs by sulforhodamine B assay; conditions: KM12, 48 h
HCT-116 = assay: Growth inhibition of human HCT116 cells after 48 hrs by sulforhodamine B assay; conditions: HCT-116, 48 h
HCT-15 = assay: Growth inhibition of human HCT15 cells after 48 hrs by sulforhodamine B assay; conditions: HCT-15, 48 h
HT-29 = assay: Growth inhibition of human HT-29 cells after 48 hrs by sulforhodamine B assay; conditions: HT-29, 48 h
COLO 205 = assay: Growth inhibition of human COLO205 cells after 48 hrs by sulforhodamine B assay; conditions: COLO 205, 48 h
[2] = Growth inhibition of human HCC2998 cells after 48 hrs by sulforhodamine B assay; conditions: HCC 2998, 48 h
UACC-257 = assay: Growth inhibition of human UACC257 cells after 48 hrs by sulforhodamine B assay; conditions: UACC-257, 48 h
SK-MEL-5 = assay: Growth inhibition of human SK-MEL-5 cells after 48 hrs by sulforhodamine B assay; conditions: SK-MEL-5, 48 h
SK-MEL-28 = assay: Growth inhibition of human SK-MEL-28 cells after 48 hrs by sulforhodamine B assay; conditions: SK-MEL-28, 48 h
MDA-MB-435 = assay: Growth inhibition of human MDA-MB-435 cells after 48 hrs by sulforhodamine B assay; conditions: MDA-MB-435, 48 h
SK-MEL-2 = assay: Growth inhibition of human SK-MEL-2 cells after 48 hrs by sulforhodamine B assay; conditions: SK-MEL-2, 48 h
M14 = assay: Growth inhibition of human M14 cells after 48 hrs by sulforhodamine B assay; conditions: M14, 48 h
Malme-3M = assay: Growth inhibition of human MALME-3M cells after 48 hrs by sulforhodamine B assay
LOX IMVI = assay: Growth inhibition of human LOXIMVI cells after 48 hrs by sulforhodamine B assay

## Cn1n[n+](C)c2c1C(=O)c1ccccc1C2=O
U-251
  GI50: 1.27 µM
SNB-19
  GI50: 1.59 µM
SNB-75
  GI50: 1.68 µM
SF-539
  GI50: 1.35 µM
SF-295
  GI50: 1.05 µM
SF-268
  GI50: 0.95 µM
NCI-H522
  GI50: 1.41 µM
NCI-H460
  GI50: 0.3 µM
NCI-H322M
  GI50: 0.28 µM
NCI-H23
  GI50: 0.62 µM
NCI-H226
  GI50: 0.51 µM
HOP-62
  GI50: 1.54 µM
[1]
  GI50: 1.21 µM
A549
  GI50: 0.32 µM
SW-620
  GI50: 1.15 µM
KM12
  GI50: 0.79 µM
HCT-116
  GI50: 0.68 µM
HCT-15
  GI50: 1.61 µM
HT-29
  GI50: 1.14 µM
COLO 205
  GI50: 1.01 µM
[2]
  GI50: 1.24 µM
UACC-257
  GI50: 1.79 µM
SK-MEL-5
  GI50: 0.38 µM
SK-MEL-28
  GI50: 1.61 µM
MDA-MB-435
  GI50: 0.2 µM
SK-MEL-2
  GI50: 1.57 µM
M14
  GI50: 0.68 µM
Malme-3M
  GI50: 0.15 µM
LOX IMVI
  GI50: 0.5 µM
